Laboratory results taken from PMC4427186, “Forskolin Suppresses Delayed-Rectifier K^+ Currents and Enhances Spike Frequency-Dependent Adaptation of Sympathetic Neurons” (PLoS ONE, 2015).

Target: T1, Kv2.1 α subunit (Rattus norvegicus, UniProt P15387)
T1 construct: gene Kcnb1; homomeric channel
T1 sequence (P15387 1-857): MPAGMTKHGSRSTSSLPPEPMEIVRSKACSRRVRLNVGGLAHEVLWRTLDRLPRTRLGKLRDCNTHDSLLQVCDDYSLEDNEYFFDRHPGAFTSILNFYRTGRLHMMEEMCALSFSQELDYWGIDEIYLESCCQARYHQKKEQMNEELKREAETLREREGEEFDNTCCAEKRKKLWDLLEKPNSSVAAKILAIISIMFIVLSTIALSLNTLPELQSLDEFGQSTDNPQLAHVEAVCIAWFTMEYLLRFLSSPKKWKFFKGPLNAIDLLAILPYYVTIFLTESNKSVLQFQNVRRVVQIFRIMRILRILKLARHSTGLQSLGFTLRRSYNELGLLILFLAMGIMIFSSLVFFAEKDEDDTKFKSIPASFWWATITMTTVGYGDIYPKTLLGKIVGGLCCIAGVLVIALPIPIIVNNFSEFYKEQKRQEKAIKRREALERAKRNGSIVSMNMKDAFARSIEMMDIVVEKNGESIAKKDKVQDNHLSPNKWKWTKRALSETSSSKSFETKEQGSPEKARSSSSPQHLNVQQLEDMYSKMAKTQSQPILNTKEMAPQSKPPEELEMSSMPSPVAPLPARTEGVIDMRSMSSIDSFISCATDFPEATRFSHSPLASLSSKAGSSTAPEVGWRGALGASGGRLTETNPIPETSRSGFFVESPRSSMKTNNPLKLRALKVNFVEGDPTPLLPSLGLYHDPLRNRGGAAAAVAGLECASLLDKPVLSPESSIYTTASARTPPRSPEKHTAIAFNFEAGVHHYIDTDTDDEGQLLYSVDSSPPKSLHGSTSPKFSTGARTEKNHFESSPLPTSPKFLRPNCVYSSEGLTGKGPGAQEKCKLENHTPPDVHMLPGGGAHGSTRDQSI
Experiment: whole-cell patch clamp, tail current amplitude
Format: cell-based

C=C[C@@]1(C)CC(=O)[C@]2(O)[C@@]3(C)[C@@H](O)CCC(C)(C)[C@@H]3[C@H](O)[C@H](OC(C)=O)[C@@]2(C)O1 [forskolin]
IC50: 31.6 µM
